Earlier results in patent US20140100283A1, “Method to Increase Absorption and Bioavailability of Oral Glutathione” (Atlantic Pro Nutrients, Inc. dba XYMOGEN, priority 2012, published 2014).

Conditions: in vivo

N[C@@H](CCC(=O)N[C@@H](CS)C(=O)NCC(=O)O)C(=O)O [glutathione, Glutathione]
increase in circulating glutathione after oral administration: does not increase circulating glutathione to a clinically beneficial extent
